Measurements: ChEMBL document CHEMBL3046257, “Response of sweet maize (Zea mays L.) hybrids to halosulfuron” (Crop Prot, 2008)

Legend:
Zea mays [1] = assay: Toxicity in Zea mays (maize) assessed as plant height relative to untreated control; type: organism-based; details: in vivo
Zea mays [2] = assay: Toxicity in Zea mays (maize) assessed as reduction in cob size relative to untreated control; type: organism-based; set-up: scale not given: the % may be the effect or the level left; details: in vivo

Compound | Activity (Zea mays [1]) [%] | Activity (Zea mays [2]) [%]
COc1cc(OC)nc(NC(=O)NS(=O)(=O)c2ncccc2C(=O)N(C)C)n1 [NICOSULFURON] | 100 | –
COc1nc(C)nc(NC(=O)NS(=O)(=O)c2ccccc2CCC(F)(F)F)n1 [PROSULFURON] | 100 | –
COC(=O)c1sccc1S(=O)(=O)NC(=O)Nc1nc(C)nc(OC)n1 [THIFENSULFURON-METHYL] | – | 9
O=C(O)c1nc(Cl)ccc1Cl [CLOPYRALID] | – | 67
CC(C)N1C(=O)c2ccccc2NS1(=O)=O [BENTAZON] | 100 | –
